Reference: patent US10858367B2, “Compounds” (GLAXOSMITHKLINE INTELLECTUAL PROPERTY DEVELOPMENT LIMITED, priority 2017, dated 2020)
Where “and” joins values, the source holds several entries; their conditions need not be identical. Equal values may be shown once.

The molecules below were run against T1, LRRK2 Ser935 phosphorylation in SH-SY5Y cells over-expressing recombinant full length LRRK2 (Homo sapiens, UniProt Q5S007) (assay: Recombinant cellular LRRK2 AlphaScreen assay). Conditions: human neuroblastoma SH-SY5Y cells, BacMam full length LRRK2, 60 minutes with compound, read-out: pIC50 in the recombinant cellular LRRK2 AlphaScreen assay (converted).
T1 construct: A BacMam virus expressing full length recombinant LRRK2 was purchased from Invitrogen; host or cells: SH-SY5Y human neuroblastoma cells transduced with BacMam LRRK2 virus
T1 sequence (Q5S007 whole entry): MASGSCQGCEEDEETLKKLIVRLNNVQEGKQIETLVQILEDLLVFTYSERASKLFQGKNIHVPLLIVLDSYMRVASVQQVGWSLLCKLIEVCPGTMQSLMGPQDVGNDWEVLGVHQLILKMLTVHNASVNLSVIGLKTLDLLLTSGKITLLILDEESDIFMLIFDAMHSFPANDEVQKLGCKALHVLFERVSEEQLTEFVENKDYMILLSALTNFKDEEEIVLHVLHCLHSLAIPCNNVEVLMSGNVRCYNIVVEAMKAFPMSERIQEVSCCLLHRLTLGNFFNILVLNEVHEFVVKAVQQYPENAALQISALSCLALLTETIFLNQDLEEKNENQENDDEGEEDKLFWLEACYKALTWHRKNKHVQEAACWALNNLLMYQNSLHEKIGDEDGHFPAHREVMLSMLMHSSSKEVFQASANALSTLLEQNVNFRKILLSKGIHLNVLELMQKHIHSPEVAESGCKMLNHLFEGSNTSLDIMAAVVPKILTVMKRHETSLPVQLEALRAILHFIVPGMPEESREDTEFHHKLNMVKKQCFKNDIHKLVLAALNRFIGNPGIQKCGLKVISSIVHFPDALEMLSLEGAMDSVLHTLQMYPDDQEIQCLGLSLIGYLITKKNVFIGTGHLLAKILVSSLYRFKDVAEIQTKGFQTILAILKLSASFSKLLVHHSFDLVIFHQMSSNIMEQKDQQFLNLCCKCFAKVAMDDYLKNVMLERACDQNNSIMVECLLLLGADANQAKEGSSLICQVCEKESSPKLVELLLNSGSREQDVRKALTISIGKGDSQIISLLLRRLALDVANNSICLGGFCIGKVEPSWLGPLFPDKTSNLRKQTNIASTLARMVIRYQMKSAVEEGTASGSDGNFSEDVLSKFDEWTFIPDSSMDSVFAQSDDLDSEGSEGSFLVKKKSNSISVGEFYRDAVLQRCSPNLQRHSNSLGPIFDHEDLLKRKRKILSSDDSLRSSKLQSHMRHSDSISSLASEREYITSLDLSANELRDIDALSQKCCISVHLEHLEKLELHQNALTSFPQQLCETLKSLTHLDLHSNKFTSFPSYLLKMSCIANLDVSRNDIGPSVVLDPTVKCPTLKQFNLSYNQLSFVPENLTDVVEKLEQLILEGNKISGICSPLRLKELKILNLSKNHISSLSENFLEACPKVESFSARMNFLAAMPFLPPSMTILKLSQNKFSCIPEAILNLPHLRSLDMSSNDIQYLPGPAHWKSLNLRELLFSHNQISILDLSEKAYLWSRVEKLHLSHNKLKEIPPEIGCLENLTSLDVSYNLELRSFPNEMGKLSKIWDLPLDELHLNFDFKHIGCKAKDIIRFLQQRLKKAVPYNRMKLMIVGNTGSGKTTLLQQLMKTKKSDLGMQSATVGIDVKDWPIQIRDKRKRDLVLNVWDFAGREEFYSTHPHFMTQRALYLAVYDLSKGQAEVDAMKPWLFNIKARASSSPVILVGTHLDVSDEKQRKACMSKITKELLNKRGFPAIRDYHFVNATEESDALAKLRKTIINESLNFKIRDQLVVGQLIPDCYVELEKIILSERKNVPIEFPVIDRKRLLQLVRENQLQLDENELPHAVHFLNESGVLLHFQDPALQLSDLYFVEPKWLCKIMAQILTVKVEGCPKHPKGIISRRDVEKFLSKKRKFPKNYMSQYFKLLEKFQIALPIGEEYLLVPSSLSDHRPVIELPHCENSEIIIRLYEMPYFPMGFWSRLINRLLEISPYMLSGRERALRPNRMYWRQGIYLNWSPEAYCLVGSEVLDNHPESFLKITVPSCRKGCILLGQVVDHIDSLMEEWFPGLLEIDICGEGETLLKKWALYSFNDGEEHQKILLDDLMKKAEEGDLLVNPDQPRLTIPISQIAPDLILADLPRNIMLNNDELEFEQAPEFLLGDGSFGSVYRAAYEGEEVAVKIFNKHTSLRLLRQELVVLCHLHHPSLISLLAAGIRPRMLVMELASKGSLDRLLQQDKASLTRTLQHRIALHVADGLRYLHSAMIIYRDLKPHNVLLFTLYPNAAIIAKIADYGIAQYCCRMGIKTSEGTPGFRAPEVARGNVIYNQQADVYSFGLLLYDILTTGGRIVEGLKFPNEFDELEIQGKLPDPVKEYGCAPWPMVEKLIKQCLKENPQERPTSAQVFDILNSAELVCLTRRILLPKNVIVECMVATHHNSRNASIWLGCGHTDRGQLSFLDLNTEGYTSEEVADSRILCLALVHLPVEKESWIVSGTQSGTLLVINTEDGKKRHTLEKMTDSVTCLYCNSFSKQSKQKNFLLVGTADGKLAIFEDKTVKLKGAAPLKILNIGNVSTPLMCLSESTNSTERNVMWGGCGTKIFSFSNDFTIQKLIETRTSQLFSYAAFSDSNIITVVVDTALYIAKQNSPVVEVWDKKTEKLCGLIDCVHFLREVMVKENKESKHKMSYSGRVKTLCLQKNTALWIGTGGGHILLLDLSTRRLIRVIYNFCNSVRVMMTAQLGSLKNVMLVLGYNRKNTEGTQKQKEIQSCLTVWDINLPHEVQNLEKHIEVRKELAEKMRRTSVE
Assay type: cell-based
Source text: b. Recombinant Cellular LRRK2 AlphaScreen Assay
To determine the activity of compounds against LRRK2 kinase activity in cells, the observed LRRK2 kinase-dependent modulation of LRRK2 Ser 935 phosphorylation (Dzamko et al., 2010, Biochem. J. 430: 405-413) was utilized to develop a quantitative 384 well plate-based immunoassay of LRRK2 Ser935 phosphorylation in the human neuroblastoma cell line SH-SY5Y, engineered to over-express recombinant full length LRRK2 protein.
A BacMam virus expressing full length recombinant LRRK2 was purchased from Invitrogen and amplified by inoculation of SF-9 cells at MOI 0.3 for 4-5 days in Sf-900 III SFM medium supplemented with 3% fetal bovine serum. Infected cell cultures were then centrifuged at 2000 g for 20 minutes, viral supernatant titer determined by anti-gp64 plaque assay and stored at 4° C.
Affinity-purified anti-phospho LRRK2 Ser935 sheep polyclonal antibody (Dzamko et al., 2010, Biochem. J. 430: 405-413) was biotinylated by standard methods (PerkinElmer). Anti-LRRK2 rabbit polyclonal antibody was purchased from Novus Biologicals. AlphaScreen Protein A IgG Kit (including acceptor and donor beads) was purchased from Perkin Elmer.
SH-SY5Y cells were grown in DMEM/F12 medium with 10% dialysed fetal bovine serum and harvested by treatment with 0.5% trypsin-EDTA for 5 minutes at 37° C. followed by centrifugation at 1000 rpm for 4 minutes. The cell pellet was resuspended in Opti-MEM reduced serum media (Invitrogen) at 200,000 cells/ml and mixed with the BacMam LRRK2 virus at MOI=50. 50 μl cell solutions were then dispensed to each well of a 384-well plate and incubated at 37° C., 5% CO2 for 24 hours.
Serial dilutions of test compounds were prepared in Opti-MEM reduced serum media (Invitrogen) and 5.6 ul transferred from compound plate to cell assay plate to achieve a top final assay concentration of 10 uM. DMSO was used in certain wells as controls. Cells were incubated at 37° C., 5% CO2 for 60 minutes. The medium was then removed and cells lysed by addition of 20 ul cell lysis buffer (Cell Signaling Technology) and incubation at 4° C. for 20 minutes. 10 ul of antibody/acceptor bead mix [(1/1000 biotinylated-pS935 LRRK2 antibody, 1/1000 total-LRRK2 antibody, 1/100 Acceptor beads in AlphaScreen detection buffer (25 mM Hepes (pH 7.4), 0.5% Triton X-100, 1 mg/ml Dextran 500 and 0.1% BSA)] was then added to each well and plates incubated for 2 hours at ambient temperature in the dark. 10 μl of donor beads solution (1/33.3 donor beads in AlphaScreen detection buffer) was then added to each well. Following incubation for a further 2 hours at ambient temperature in the dark, plates were read on an EnVision™ plate reader at emission 520-620 nm with excitation 680 nm. Dose response curve data was based on sigmoidal dose-response model.

IC50 | SMILES
≤ 1 µM | Cc1nc(N2CC3CC2CO3)cc(-n2ncc3cc(C)c(C4CCN(C5COC5)CC4O)cc32)n1 (single isomer, unassigned) [Example E141]
≤ 1 µM | Cc1nc(N2C[C@H]3C[C@@H]2CO3)cc(-n2ncc3cc(C)c(C4CCN(CCC(=O)O)CC4F)cc32)n1 (single isomer, unassigned) [Example E155]
≤ 1 µM | Cc1nc(N2C[C@H]3C[C@@H]2CO3)cc(-n2ncc3cc(C)c(C4C5CN(C6CCOC6)CC54)cc32)n1 (stereo partly drawn) [Example E179, (1R,4R)-5-(2-methyl-6-(5-methyl-6-(3-((S)-tetrahydrofuran-3-yl)-3-azabicyclo-[3.1.0]hexan-6-yl)-1H-indazol-1-yl)pyrimidin-4-yl)-2-oxa-5-azabicyclo[2.2.1]heptane]
≤ 1 µM | Cc1nc(N2C[C@@H]3C[C@H]2CO3)cc(-n2ncc3cc(C)c(C4CCN(CCO)CC4)cc32)n1 [Example E52, 2-(4-(1-(6-((1S,4S)-2-oxa-5-azabicyclo[2.2.1]heptan-5-yl)-2-methylpyrimidin-4-yl)-5-methyl-1H-indazol-6-yl)piperidin-1-yl)ethanol]
≤ 1 µM | Cc1nc(N2C[C@@H]3C[C@H]2CO3)cc(-n2ncc3cc(C)c(C4CCN(C(=O)CO)CC4)cc32)n1 [Example E54, 1-(4-(1-(6-((1S,4S)-2-oxa-5-azabicyclo[2.2.1]heptan-5-yl)-2-methylpyrimidin-4-yl)-5-methyl-1H-indazol-6-yl)piperidin-1-yl)-2-hydroxyethanone]
≤ 0.01 µM | COc1nc(N2CC3CC2CO3)cc(-n2ncc3cc(C)c([C@H]4CC[C@@](C)(O)CC4)cc32)n1 (single isomer, unassigned) [Example E11]
1.86 µM | Cc1nc(N2C[C@@H]3C[C@H]2CN3C2COC2)cc(-n2ncc3cc(C)c([C@H]4CC[C@](C)(O)CC4)cc32)n1 [Example E32, Trans-1-methyl-4-(5-methyl-1-(2-methyl-6-((1S,4S)-5-(oxetan-3-yl)-2,5-diazabicyclo[2.2.1]heptan-2-yl)pyrimidin-4-yl)-1H-indazol-6-yl)cyclohexanol]
≤ 1 µM | Cc1nc(N2CC3CC2CO3)cc(-n2ncc3cc(C)c(C4CCN(CCO)CC4F)cc32)n1 (single isomer, unassigned) [Example E23]
≤ 1 µM | Cc1nc(N2C[C@@H]3C[C@H]2CO3)cc(-n2ncc3cc(C)c(C4CCN(CCC(=O)O)CC4F)cc32)n1 (single isomer, unassigned) [Example E157]
≤ 1 µM | COc1nc(N2C[C@H]3C[C@@H]2CO3)cc(-n2ncc3cc(Cl)c(C4CCN(C5CCOC5)CC4)cc32)n1 (single isomer, unassigned) [Example E67]
≤ 0.01 µM | COc1nc(N2C[C@H]3C[C@@H]2CO3)cc(-n2ncc3cc(Cl)c(C4CCN(C5COC5)CC4)cc32)n1 [Example E5, (1R,4R)-5-(6-(5-chloro-6-(1-(oxetan-3-yl)piperidin-4-yl)-1H-indazol-1-yl)-2-methoxypyrimidin-4-yl)-2-oxa-5-azabicyclo[2.2.1]heptane]
≤ 1 µM | Cc1nc(N2C[C@@H]3C[C@H]2CO3)cc(-n2ncc3cc(Cl)c(C4CCN(C5COC5)CC4)cc32)n1 [Example E26, (1S,4S)-5-(6-(5-chloro-6-(1-(oxetan-3-yl)piperidin-4-yl)-1H-indazol-1-yl)-2-methylpyrimidin-4-yl)-2-oxa-5-azabicyclo[2.2.1]heptane]
≤ 1 µM | Cc1nc(N2C[C@H]3C[C@@H]2CO3)cc(-n2ncc3cc(C)c(C4CCN(C5COC5)CC4)cc32)n1 [Example E39, (1R,4R)-5-(2-methyl-6-(5-methyl-6-(1-(oxetan-3-yl)piperidin-4-yl)-1H-indazol-1-yl)pyrimidin-4-yl)-2-oxa-5-azabicyclo[2.2.1]heptane]
≤ 1 µM | Cc1nc(N2C[C@@H]3C[C@H]2CO3)cc(-n2ncc3cc(C)c([C@H]4CC[C@](C)(O)CC4)cc32)n1 [Example E8, Trans-4-(1-(6-((1S,4S)-2-oxa-5-azabicyclo[2.2.1]heptan-5-yl)-2-methylpyrimidin-4-yl)-5-methyl-1H-indazol-6-yl)-1-methylcyclohexanol]
≤ 1 µM | COc1nc(N2C[C@@H]3C[C@H]2CO3)cc(-n2ncc3cc(C)c(C4CCNCC4)cc32)n1 [Example E59, (1S,4S)-5-(2-methoxy-6-(5-methyl-6-(piperidin-4-yl)-1H-indazol-1-yl)pyrimidin-4-yl)-2-oxa-5-azabicyclo[2.2.1]heptane]
≤ 1 µM | COc1nc(N2CC3CC2CC3C(=O)O)cc(-n2ncc3cc(Cl)c(O[C@@H]4CCOC4)cc32)n1 (single isomer, unassigned) [Example E85]
≤ 1 µM | Cc1nc(N2C[C@H]3C[C@@H]2CO3)cc(-n2ncc3cc(C)c(C4CCN(C5COCC5O)CC4)cc32)n1 (single isomer, unassigned) [Example E172]
≤ 1 µM and 0.02 µM | COc1nc(N2C[C@H]3C[C@@H]2CO3)cc(-n2ncc3cc(C)c(C4CCN(C5COC5)CC4)cc32)n1 [Example E1, (1R,4R)-5-(2-methoxy-6-(5-methyl-6-(1-(oxetan-3-yl)piperidin-4-yl)-1H-indazol-1-yl)pyrimidin-4-yl)-2-oxa-5-azabicyclo[2.2.1]heptane]
≤ 1 µM | COCCN1CCC(c2cc3c(cnn3-c3cc(N4C[C@H]5C[C@@H]4CO5)nc(OC)n3)cc2C)CC1 [Example E35, (1R,4R)-5-(2-methoxy-6-(6-(1-(2-methoxyethyl)piperidin-4-yl)-5-methyl-1H-indazol-1-yl)pyrimidin-4-yl)-2-oxa-5-azabicyclo[2.2.1]heptane]
≤ 1 µM | COc1nc(N2C[C@H]3C[C@@H]2CO3)cc(-n2ncc3cc(C)c(C4CCNCC4)cc32)n1 [Example E58, (1R,4R)-5-(2-methoxy-6-(5-methyl-6-(piperidin-4-yl)-1H-indazol-1-yl)pyrimidin-4-yl)-2-oxa-5-azabicyclo[2.2.1]heptane]
≤ 1 µM | COc1nc(N2C[C@@H]3C[C@H]2CO3)cc(-n2ncc3ccc(OC4(C)CC4)cc32)n1 [Example E4, (1S,4S)-5-(2-methoxy-6-(6-(1-methylcyclopropoxy)-1H-indazol-1-yl)pyrimidin-4-yl)-2-oxa-5-azabicyclo[2.2.1]heptane]

SMILES | IC50
COc1nc(N2CC3CC(C2)C3C(=O)O)cc(-n2ncc3cc(C)c(OC(C)C)cc32)n1 (centres unmarked) [Example E81, 3-(6-(6-isopropoxy-5-methyl-1H-indazol-1-yl)-2-methoxypyrimidin-4-yl)-3-azabicyclo[3.1.1]heptane-6-carboxylic Acid] | ≤ 0.01 µM
Cc1nc(N2CC3CC(C2)C3C(=O)O)cc(-n2ncc3cc(C)c(C4CCOCC4)cc32)n1 (centres unmarked) [Example E80, 3-{2-Methyl-6-[5-methyl-6-(tetrahydro-pyran-4-yl)-indazol-1-yl]-pyrimidin-4-yl}-3-aza-bicyclo[3.1.1]heptane-6-carboxylic Acid] | ≤ 1 µM
Cc1nc(N2CC3CC(C2)C3C(=O)O)cc(-n2ncc3cc(C)c([C@H]4CC[C@@](C)(O)CC4)cc32)n1 (single isomer, unassigned) [Example E77, Cis-3-{6-[6-(4-Hydroxy-4-methyl-cyclohexyl)-5-methyl-indazol-1-yl]-2-methyl-pyrimidin-4-yl}-3-aza-bicyclo[3.1.1]heptane-6-carboxylic Acid] | ≤ 1 µM
Cc1nc(N2CC3CC(C2)O3)cc(-n2ncc3cc(C)c(C4CCN(C5COC5)CC4)cc32)n1 [Example E44, 3-(2-Methyl-6-(5-methyl-6-(1-(oxetan-3-yl)piperidin-4-yl)-1H-indazol-1-yl)pyrimidin-4-yl)-6-oxa-3-azabicyclo[3.1.1]heptane] | ≤ 1 µM
COc1nc(N2CC3CC(C2)O3)cc(-n2ncc3cc(C)c(C4CCNCC4)cc32)n1 [Example E60, 3-(2-methoxy-6-(5-methyl-6-(piperidin-4-yl)-1H-indazol-1-yl)pyrimidin-4-yl)-6-oxa-3-azabicyclo[3.1.1]heptane 2,2,2-trifluoroacetate] | ≤ 1 µM
